Experimental data reported in ChEMBL document CHEMBL1158373, “GRIND-based 3D-QSAR and CoMFA to investigate topics dominated by hydrophobic interactions: the case of hERG K+ channel blockers” (Eur J Med Chem, 2009).

Test system: not listed separately
Assay: Lipophilicity, log D at pH 7.0
Details: buffer

SMILES	logD
CCCc1nn(C)c2c(=O)[nH]c(-c3cc(S(=O)(=O)N4CCN(C)CC4)ccc3OCC)nc12	2.29
CN(C)CCC=C1c2ccccc2CCc2ccccc21 [AMITRIPTYLINE]	3.33
COc1ccc(CCN2CCC(Nc3nc4ccccc4n3Cc3ccc(F)cc3)CC2)cc1 [ASTEMIZOLE]	4.14
CN1CCN(CCCCN2C(=O)CN(/N=C/c3ccc(-c4ccc(Cl)cc4)o3)C2=O)CC1 [AZIMILIDE]	2.05
CC(C)COCC(CN(Cc1ccccc1)c1ccccc1)N1CCCC1 (stereo not given) [BEPRIDIL]	4.49
CN(C)CCCN1c2ccccc2Sc2ccc(Cl)cc21 [CHLORPROMAZINE]	2.99
COc1cc(N)c(Cl)cc1C(=O)NC1CCN(CCCOc2ccc(F)cc2)CC1OC (stereo not given) [CISAPRIDE]	2.05
CN1CCN(C2=Nc3cc(Cl)ccc3Nc3ccccc32)CC1 [CLOZAPINE]	4.41
COC(=O)[C@H]1[C@@H](OC(=O)c2ccccc2)C[C@@H]2CC[C@H]1N2C [COCAINE]	0.41
COc1ccc([C@@H]2Sc3ccccc3N(CCN(C)C)C(=O)[C@@H]2OC(C)=O)cc1 [DILTIAZEM]	1.62
CN(CCOc1ccc(NS(C)(=O)=O)cc1)CCc1ccc(NS(C)(=O)=O)cc1 [DOFETILIDE]	0.68
O=C(O[C@@H]1C[C@@H]2C[C@H]3C[C@H](C1)N2CC3=O)c1c[nH]c2ccccc12 [DOLASETRON]	2.6
O=c1[nH]c2ccccc2n1CCCN1CCC(n2c(=O)[nH]c3cc(Cl)ccc32)CC1 [DOMPERIDONE]	3.15
O=C(CCCN1CC=C(n2c(=O)[nH]c3ccccc32)CC1)c1ccc(F)cc1 [DROPERIDOL]	2.25
COc1c(N2CCNC(C)C2)c(F)cc2c(=O)c(C(=O)O)cn(C3CC3)c12 (stereo not given) [GATIFLOXACIN]	-2.96
COc1ccc(Cl)cc1C(=O)NCCc1ccc(S(=O)(=O)NC(=O)NC2CCCCC2)cc1 [GLYBURIDE]	2.23

SMILES	logD
CN1C2CCCC1CC(NC(=O)c1nn(C)c3ccccc13)C2 (stereo not given) [GRANISETRON]	-1.72
Cc1c(F)c(N2CCNC(C)C2)cc2c1c(=O)c(C(=O)O)cn2C1CC1 (stereo not given) [GREPAFLOXACIN]	-1.47
CCCCN(CCCC)CCC(O)c1cc2c(Cl)cc(Cl)cc2c2cc(C(F)(F)F)ccc12 (stereo not given) [HALOFANTRINE]	5.68
O=C(CCCN1CCC(O)(c2ccc(Cl)cc2)CC1)c1ccc(F)cc1 [HALOPERIDOL]	1.82
COCC(=O)O[C@]1(CCN(C)CCCc2nc3ccccc3[nH]2)CCc2cc(F)ccc2[C@@H]1C(C)C [MIBEFRADIL]	1.96
CN(c1nccc(=O)[nH]1)C1CCN(c2nc3ccccc3n2Cc2ccc(F)cc2)CC1 [MIZOLASTINE]	1.96
C1CCC(C(CC2CCCCN2)C2CCCCC2)CC1 (stereo not given) [PERHEXILINE]	2.81
O=c1[nH]c2ccccc2n1C1CCN(CCCC(c2ccc(F)cc2)c2ccc(F)cc2)CC1 [PIMOZIDE]	5.11
Cc1nc2n(c(=O)c1CCN1CCC(c3noc4cc(F)ccc34)CC1)CCCC2 [RISPERIDONE]	0.71
O=C1NCCN1CCN1CCC(c2cn(-c3ccc(F)cc3)c3ccc(Cl)cc23)CC1 [SERTINDOLE]	2.65
C[C@@H]1CN(c2c(F)c(N)c3c(=O)c(C(=O)O)cn(C4CC4)c3c2F)C[C@H](C)N1 [SPARFLOXACIN]	-3.4
Fc1ccc(Cn2c(NC3CCNCC3)nc3ccccc32)cc1 [TECASTEMIZOLE]	0.16
CC(C)(C)c1ccc(C(O)CCCN2CCC(C(O)(c3ccccc3)c3ccccc3)CC2)cc1 (stereo not given) [TERFENADINE]	4.11
CSc1ccc2c(c1)N(CCC1CCCCN1C)c1ccccc1S2 (stereo not given) [THIORIDAZINE]	3.83
O=C1Cc2cc(CCN3CCN(c4nsc5ccccc45)CC3)c(Cl)cc2N1 [ZIPRASIDONE]	3.93

Target: hERG (KCNH2) (Homo sapiens, UniProt Q12809)
Sequence (Q12809 whole entry): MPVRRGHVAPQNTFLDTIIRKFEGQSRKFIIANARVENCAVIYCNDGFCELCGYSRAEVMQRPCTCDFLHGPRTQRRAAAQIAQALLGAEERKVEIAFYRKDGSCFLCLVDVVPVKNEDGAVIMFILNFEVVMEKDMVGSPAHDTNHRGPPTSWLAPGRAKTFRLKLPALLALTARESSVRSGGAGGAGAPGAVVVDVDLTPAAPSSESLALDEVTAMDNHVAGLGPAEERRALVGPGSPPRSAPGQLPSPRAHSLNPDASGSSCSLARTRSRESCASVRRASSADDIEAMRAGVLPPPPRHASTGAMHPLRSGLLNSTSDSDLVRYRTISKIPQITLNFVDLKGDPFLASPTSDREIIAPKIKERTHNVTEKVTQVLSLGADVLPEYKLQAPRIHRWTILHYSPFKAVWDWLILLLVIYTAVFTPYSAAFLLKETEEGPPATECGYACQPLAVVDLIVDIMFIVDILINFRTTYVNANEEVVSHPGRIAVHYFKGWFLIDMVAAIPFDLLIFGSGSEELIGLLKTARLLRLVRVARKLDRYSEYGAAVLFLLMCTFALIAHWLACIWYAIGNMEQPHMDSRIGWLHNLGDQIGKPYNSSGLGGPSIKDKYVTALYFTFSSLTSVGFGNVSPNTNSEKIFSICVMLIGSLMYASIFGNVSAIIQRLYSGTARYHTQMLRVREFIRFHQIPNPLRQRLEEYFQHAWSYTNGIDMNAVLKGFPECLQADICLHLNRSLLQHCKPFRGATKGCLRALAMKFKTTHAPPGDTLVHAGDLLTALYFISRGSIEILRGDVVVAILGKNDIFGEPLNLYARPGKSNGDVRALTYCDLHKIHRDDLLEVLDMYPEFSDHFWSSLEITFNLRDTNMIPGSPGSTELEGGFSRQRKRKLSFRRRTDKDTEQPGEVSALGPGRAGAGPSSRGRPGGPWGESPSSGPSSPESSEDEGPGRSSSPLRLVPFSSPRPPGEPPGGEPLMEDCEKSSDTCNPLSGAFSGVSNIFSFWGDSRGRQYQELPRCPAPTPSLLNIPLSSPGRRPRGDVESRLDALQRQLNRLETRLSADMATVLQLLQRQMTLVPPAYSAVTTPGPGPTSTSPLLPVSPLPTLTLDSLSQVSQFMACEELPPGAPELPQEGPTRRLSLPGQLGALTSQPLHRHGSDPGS
Assay: (§1) Inhibition of human ERG in MCF7 cells
Details: human, mcf7

SMILES	IC50
CN1CCN(CCCCN2C(=O)CN(/N=C/c3ccc(-c4ccc(Cl)cc4)o3)C2=O)CC1 [AZIMILIDE]	0.562 µM

Target: Voltage-gated inwardly rectifying potassium channel KCNH2 (Homo sapiens, UniProt Q12809)
Sequence (Q12809 whole entry): as above
Assay: as §1
Details: not given

SMILES	IC50
COc1c(N2CCNC(C)C2)c(F)cc2c(=O)c(C(=O)O)cn(C3CC3)c12 (stereo not given) [GATIFLOXACIN]	129 µM

Same assay, conditions: human, MCF7 cells

SMILES	pIC50
C[C@@H]1CN(c2c(F)c(N)c3c(=O)c(C(=O)O)cn(C4CC4)c3c2F)C[C@H](C)N1 [SPARFLOXACIN]	4.58

Same assay, conditions: human, mcf7

SMILES	pIC50
CN(c1nccc(=O)[nH]1)C1CCN(c2nc3ccccc3n2Cc2ccc(F)cc2)CC1 [MIZOLASTINE]	6.45
